The results in this text go back to patent US11066378B2, “Caffeic acid derivatives for anti-angiogenesis” (Taipei Medical University, priority 2015, dated 2021).

Assay [1] deals with HUVECs. Briefly: Matrigel cell invasion assay. It counts as cell-based, human. Conditions: 0.5 μM, 16 h, FIG. 3B. How it is done: For evaluating cell migration, the HUVECs (1×10^5 cells/well) suspended within serum-free culture medium were seeded on inner surface of the upper chamber (ThinCerts™ Cell Culture Inserts with 8 μm pore size; #662638; Greiner Bio-One Inc., Monroe, N.C., USA) placed in the lower chamber (wells of a 24-well plate). For examining the cell invasion, the HUVECs were pre-mixed with equal volume of thawed Matrigel and rapidly seeded on the upper chamber. After 2 h for cell attachment, K20E at different concentrations (0.5, 1, and 2 μM) were added in the upper and the lower chambers, while 5% FBS as a chemoattractant was added in the lower chamber to facilitate cell migration or invasion. After 16 h incubation, the culture medium (or Matrigel) was removed clearly from inside the upper chamber, and the migrated or invasion cells attached on the outer surface of the upper chamber were fixed with 10% formaldehyde for 10 min at RT. The fixed cells were subsequently counterstained with hematoxylin. Relative cell number of each groups was counted from five random regions by light microscopy using a 40-fold magnification. The cell number of the control group (treated with 5% FBS alone) was defined as 100%.

The subject of the next assay is VEGFR-2. The assay is described as follows: VEGFR-2 expression in HUVECs (immunoblot). It counts as cell-based, human. The conditions noted are these: FIG. 6A. As for the experimental part:
(§1) The experiments were carried out as described previously (Pan et al., 2010). Briefly, the cells (5×10^5 cells/well) seeded on the 6-well plates and incubated with different concentrations (0.5, 1, and 2 μM) of K20E under normal culture condition for 15 min or 24 h to detect the expression levels of the phosphorylated proteins and the total proteins, respectively. The treated cells were harvested and lysed by using PROPREP® protein extraction solution (#17081; iNtRON Biotechnology, Gyeonggi-Do, South Korea). The cell lysates were further centrifuged at 13000×g at 4° C. for 10 min to collect the supernatants for sodium dodecyl sulfate-polyacrylamide gel electrophoresis (SDS-PAGE). Protein concentration was measured by the Bio-Rad protein assay kit (Bio-Rad, Hercules, Calif., USA) according to the manufacturer's instructions. Aliquots containing 30 μg protein were electrophoresed using 10% slab SDS-PAGE gels and then transferred to PVDF membranes (Immobilon-P™; Millipore, Bedford, Mass., USA). […] The luminescence signal was acquired by Fujifilm LAS-4000 system (San Leandro, Calif., USA) and quantified by using MultiGauge software (v3.0; Fujifilm). […] The relative protein expression was calculated according to the values of the control group (treated with 5% or 10% FBS alone) as 100%.

In assay [2] the test system is LLC1 lung carcinoma tumor. The assay is described as follows: Lewis lung carcinoma-bearing mouse model. It counts as in vivo. The conditions noted are these: LLC1-bearing mice, 2-week treatment, 4 and 8 mg/kg/day intraperitoneal, FIG. 1A. The text has this:
The experimental design and procedure according to the method reported by our previous study with minor modification (Liu et al., 2013). Briefly, male C57BL/6 mice (average of 8-week-old) were purchased from the BioLASCO (Taipei, Taiwan) and housed in a 12-h light/dark cycles with free access to food and water. All animal care followed the institutional animal ethical guidelines of ChinaMedical University (Taichung, Taiwan). After 1 week adaptation, the mice were divided randomly into three groups (n=6/group): Group 1 (control group; treatment with normal saline), Group 2 (treatment with 4 mg/kg body weight/day of […]), and Group 3 (treatment with 8 mg/kg body weight/day of […]). At first, the LLC1 lung cancer cells (6×10^5 cells in 100 μL of total volume) were injected subcutaneously into the back skin of mice to induce lung carcinoma xenografts. Two weeks later, the tumor-bearing mice began to receive the treatments according to experiment design (normal saline or […] with different dosages) by intraperitoneal injection once a day for two weeks. At the end of the study, the tumor masses were harvested to photograph and weighted.

In assay [3] the test system is HUVECs. The assay is described as follows: Tube formation analysis. Type of assay: cell-based, human. Conditions: 8 h, 5% FBS, 0.5, 1 and 2 μM, dose-dependent, FIG. 4. As for the experimental part:
The experiments were performed as described previously (Pan et al., 2010). The HUVECs (lx 10^4 cells/well) were seeded on Matrigel-coated wells of a 96-well plate and then incubated with various concentrations (0.5, 1, and 2 μM) of K20E for 8 h. After that, the capillary-like tube formation was observed by light microscopy at 40-fold magnification, and the tube lengths of the capillary mesh were measured to evaluate anti-angiogenic effect of K20E. The tube length of the control group (treated with 5% FBS alone) was defined as 100%.

Assay [4] has as its system HUVECs. Briefly: Cell cycle analysis by flow cytometry. It counts as cell-based, human. The conditions noted are these: 24 h, FIG. 2E. How it is done:
The experiments were performed according to our previous report with minor modifications (Pan et al., 2010). Briefly, the HUVECs (5×10^5 cells/well) were seeded on 6-well plated and harvested after 24 h treatment of K20E (0.5, 1, and 2 μM). Harvested cells were fixed with 70% ice-cold ethanol overnight. Cell pellets were centrifuged (1500 rpm, 5 min, 4° C.) and then re-suspended in 500 μL of DNA staining buffer containing 4 μg/mL propidium iodide, 1% Triton X-100, and 0.5 mg/mL of RNase A. After incubation at 37° C. (water bath) for 30 min in the dark, the cell cycle phase distributions were detected and analyzed by using FACSCanto flow cytometer (BD Biosciences, San Jose, Calif., USA) and ModFit LT Program (Verify Software House, Topsham, Me., USA), respectively.
(In general: In flow cytometry, cells or beads pass a laser one at a time.)

The test system of a further assay is VEGF. Briefly: VEGF level in LLC1 cells (immunoblot) and culture medium (ELISA). It counts as cell-based, mouse. Conditions: 24 h, FIG. 5. As for the experimental part:
as §1, with “100%. […]” for “100%.”
(In general: Immunoblotting shows a protein as a band on a membrane.)

A further assay concerns p53-p21 pathway. Briefly: p53 and p21 protein levels in HUVECs (immunoblot). It counts as cell-based, human. The conditions noted are these: FIG. 7. How it is done: as §1

Each structure is given as a SMILES string.

As to `COC(=O)/C=C/c1cc(OC(C)=O)c2c(c1)[C@H](C(=O)OC)[C@@H](c1ccc(OC(C)=O)c(OC(C)=O)c1)O2` [K20E], in the assay on HUVECs [1], the “5% FBS-induced cell invasion of the HUVECs” value is given as “largely suppressed”. Moreover, the “expression level of intracellular and surface VEGFR-2” value in the assay with VEGFR-2 was “markedly down-regulated”. Further, the tumor mass result in assay [2] is recorded as “dose-dependently reduced”. The “tube formation of the HUVECs on Matrigel” value with HUVECs [3] was “significantly suppressed”. The “cells in sub-G1 phases (apoptosis)” value with HUVECs [4] (0.5 μM) is “significantly induce cells in sub-G1 phases (apoptosis)”. Moreover, the “cell cycle arrest in G2/M phase” value with HUVECs [4] (1 μM) is on record as “arrest cells in G2/M phase”. Moreover, the “intracellular level of VEGF protein” value in the assay on VEGF (LLC1 cancer cells, immunoblot) is listed as “dose-dependently decrease”. In addition, in the assay with VEGF (LLC1 culture medium, ELISA), the “secreted level of VEGF protein” value is “dose-dependently decrease”. Also, in the assay with p53-p21 pathway, the “expression level of p21 protein” value is reported as “dose-dependently increased” and the “expression level of p53 protein” value is “dose-dependently increased”.
